“And” between values parts separate entries of the source, which are not always exact repeats. Identical values can stand only once. Like-named read-outs stand apart in the source and are kept apart here.
Columns and labels:
[1] = system: nephritis caused by cisplatin; test: Effect on nephritis caused by cisplatin -1 (Example 2); assay type: in vivo, female Fischer rats; conditions: with cisplatin 2 mg/kg hypodermically for 5 days, 24 h after final administration
Description: Effect on nephritis caused by cisplatin -1
Five female Fischer rats (5 weeks of age) per group were administered hypodermically with 2 mg/kg of cisplatin for 5 days, and at the same time, HX-1920 was administered orally in a dose of 50 mg or 150 mg/kg, or administered intraperitoneally in a dose of 10 or 30 mg/kg. Twenty-four hours after the final administration, the rats were sacrificed, and their blood urea nitrogen (BUN) and creatinine were measured.

[2] = system: nephritis caused by cisplatin; test: Effect on nephritis caused by cisplatin - 2 (Example 3); assay type: in vivo, female Fischer rats; conditions: with cisplatin 1 mg/kg hypodermically for 8 days, 24 h after final administration
Description: Effect on nephritis caused by cisplatin - 2
Six female Fischer rats (8 weeks of age) per group were administered hypodermically with 1 mg/kg of cisplatin for 8 days, and at the same time, HX-1920 was administered orally in a dose of 10 mg or 100 mg/kg. In both the administrations, the blood urea nitrogen (BUN) and creatinine measured 24 hours after the final administration tended to show lower values. […]

[3] = system: nephritis caused by cisplatin; test: Effect on nephritis caused by cisplatin - 3 (Example 4), BUN and survival; assay type: in vivo, male ICR rats; conditions: with cisplatin 3 mg/kg subcutaneously for 4 days
Description: Effect on nephritis caused by cisplatin - 3
Ten male ICR rats (8 weeks of age) per group were administered subcutaneously with 3 mg/kg of cisplatin for 4 days, and at the same, HX-1920 was orally administered in a dose of 100 mg/kg. Sixteen hours after the final administration, 5 rats of each group were measured for blood urea nitrogen (BUN), and the survival ratios of the remaining 5 rats of each group for the subsequent 5 days were examined. […] Thus, the effect of the administration of HX-1920 on the alleviation of renal dysfunctions was observed. […]

[4] = system: nephritis caused by cisplatin; test: Effect on nephritis caused by cisplatin - 4 (Example 5); assay type: in vivo, female F344 rats; conditions: for BUN / Creatinine: cisplatin 1 mg/kg hypodermically for 8 days, 24 h after final cisplatin; for inhibition at 100 mg/kg: Rattus norvegicus, po, 100 mg/kg p.o., inhibition of the cisplatin-induced increase
Description: Effect on nephritis caused by cisplatin - 4
Six to seven female F344 rats per group weighing about 150 g, per group, were administered hypodermically in the dorsal portion with 1 mg/kg of cisplatin dissolved in a physiological saline solution once a day over 8 days. Twenty-four hours after the final administration of the cisplatin, the rats were anesthtized with ether, and the blood was collected from each rat, centrifuged and measured for blood urea nitrogen (BUN) and creatinine with an autoanalyzer Olympus AU-550.
HX-1920 which was a substance to be tested was dissolved in a 2.5 % NaHCO₃, and the resultant solution was administered orally in a dose of 10 or 100 mg/kg over 8 days immediately before the administration of the cisplatin.
The increases in BUN and creatinine by the administration of cisplatin are considered to be characteristics in acute renal failure. […]

[5] = system: vomiting caused by cisplatin; test: Effect on inhibition of vomiting caused by cisplatin -1 (Example 6), degree of vomiting per dog; assay type: in vivo; design: key: III: Extreme; II: Moderate; I: Slight; 0: No vomiting; conditions: 20 mg/kg p.o. (capsule) 30 min before i.v. cisplatin; individual dogs
Description: Effect on inhibition of vomiting caused by cisplatin -1
Five dogs (7 - 12.5 kg) per group were admininistered intravenously with 0.4 mg/kg of cisplatin per day for the initial 3 days and with 0.8 mg/kg of cisplatin per day for the subsequent 1 day. HX-1920 in a dose of 20 mg/kg was encapsulated and administered 30 minutes before the intravenous administration of cisplatin. Separately, Nauzelin (trade name, manufactured by Kyowa Hakko Kogyo Co., Ltd.), which was a domperidone type antiemetic, was administered to another group of five dogs in a dose of 2 mg/kg for 7 days. […] The vomiting was cured after 24 hours. However, the same symptom was repeatedly manifested when cisplatin was administered. […] Thus, the effect of HX-1920 on the alleviation of the vomit-inducing activity of the carcinostatic cisplatin was evident.

[6] = system: vomiting induced by the cisplatin; test: Effect on inhibition of vomiting caused by cisplatin -2 (Example 7), manifestation ratio; assay type: in vivo, mongrel dogs
Description: Effect on inhibition of vomiting caused by cisplatin -2
Female and male mongrel dogs weiging about 10 kg were administered intravenously with 0.4 mg/kg/day of cisplatin dissolved in a physiological saline solution for the initial 3 days and with 0.8 mg/kg/day of cisplatin for the subsequent 4 days to examine the effects of substances to be tested on the basis of a manifestation ratio, as an index, of vomiting induced by the cisplatin.
HX-1920, which was a substance to be tested, was dissolved in a 10 % Nikkol solution (Nikkol: trade name, dissolving aid manufactured by Nikko Chemical Co., Ltd.) containing 1 % NaHCO₃, and put into gelatin soft capsules, and the capsules were administered orally 30 minutes before the administration of cisplatin.
In addition, as a known domperidone type antiemetic, a 1 % Nauzelin powder was put into gelatin soft capsules, and administered orally 30 minutes before the administration of cisplatin.

[7] = system: stomach contraction caused by cisplatin; test: Effect on inhibition of stomach contraction caused by cisplatin (Example 8); assay type: in vivo, female Fischer rats; conditions: with cisplatin 2 mg/kg subcutaneously once a day for 4 days
Description: Effect on inhibition of stomach contraction caused by cisplatin
Cisplatin in a dose of 2 mg/kg was administered subcutaneously into female Fischer rats (5 weeks of age) once a day for 4 days, and at the same time, HX-1920 was administered intraperitoneally or orally.
[…] For the cisplatin non-administered group and the cisplatin administered vehicle control group, 1 ml/day of a 1 % gum arabic solution was administered per rat.

[8] = 10 mg/kg/day p.o. in 2.5 % NaHCO3 over 8 days
[9] = 100 mg/kg/day p.o. in 2.5 % NaHCO3 over 8 days
[10] = 20 mg/kg orally in capsules 30 min before i.v. cisplatin (0.4 mg/kg/day 3 days, then 0.8 mg/kg/day 4 days)

CN1C(C(=O)Nc2ccccc2-c2nnn[nH]2)=C(O)c2ccccc2S1(=O)=O [HX-1920, 4-hydroxy-2-methyl-N-(2-(1H-tetrazol-5-yl)phenyl)2H-1,2-benzothiazine-3-carboxamide-1,1-dioxide]
BUN ([1]; 10 mg/kg/day i.p.): 102.8 ± 29.5 mg/dL | Creatinine ([1]; 10 mg/kg/day i.p.): 0.70 ± 0.04 mg/dL | BUN ([1]; 30 mg/kg/day i.p.): 69.6 ± 22.2 mg/dL | Creatinine ([1]; 30 mg/kg/day i.p.): 0.65 ± 0.04 mg/dL | BUN ([1]; 50 mg/kg/day p.o.): 138.1 ± 47.6 mg/dL | Creatinine ([1]; 50 mg/kg/day p.o.): 0.83 ± 0.31 mg/dL | BUN ([1]; 150 mg/kg/day p.o.): 91.1 ± 58.6 mg/dL | Creatinine ([1]; 150 mg/kg/day p.o.): 0.65 ± 0.11 mg/dL | BUN ([2]; 10 mg/kg/day p.o.): 51.1 ± 16.5 mg/dL | Creatinine ([2]; 10 mg/kg/day p.o.): 1.15 ± 0.29 mg/dL | BUN ([2]; 100 mg/kg/day p.o.): 38.0 ± 6.4 mg/dL | Creatinine ([2]; 100 mg/kg/day p.o.): 0.96 ± 0.05 mg/dL | survival (in words) ([3]; 100 mg/kg p.o., subsequent 5 days, all vehicle control rats died): all of the five rats of the HX-1920 administered group survived | BUN ([3]; 100 mg/kg/day p.o., 16 h after final administration): 78.3 ± 45.7 mg/dL | Survival ratio ([3]; 100 mg/kg/day p.o., survival over the subsequent 5 days): 100% | inhibition activity against increase in BUN and creatinine (in words) ([4]; 10 mg/kg p.o.): did not exhibit clear inhibition activity | BUN [4, 8]: 51.1 ± 16.5 mg/dL | Creatinine [4, 8]: 1.15 ± 0.29 mg/dL | BUN [4, 9]: 38.0 ± 6.1 mg/dL | Creatinine [4, 9]: 0.96 ± 0.05 mg/dL | inhibition at 100 mg/kg ([4]; read-out: inhibition activity in BUN): 38% | inhibition at 100 mg/kg ([4]; read-out: inhibition activity in creatinine): 25% | Degree of vomiting 5th day [5]: 0 (4×) and I | Degree of vomiting 6th day [5]: I (2×) and 0 (3×) | Degree of vomiting 7th day [5]: I (3×) and 0 (2×) | Vomiting manifestation ratio (%) 4th day [6, 10]: 29.4% | Vomiting manifestation ratio (%) 5th day [6, 10]: 23.5% | Vomiting manifestation ratio (%) 6th day [6, 10]: 29.4% | Vomiting manifestation ratio (%) 7th day [6, 10]: 52.9% | manifestation of vomiting (in words) ([6]; 20 mg/kg orally, compared with the vehicle control group): clearly inhibited | Diameter of center of stomach ([7]; 10 mg/kg i.p.): 0.97±0.07 mm | Diameter of center of stomach ([7]; 30 mg/kg i.p.): 1.18±0.07 mm | Diameter of center of stomach ([7]; 150 mg/kg p.o.): 1.14±0.07 mm

From patent EP0455830B1, “MEDICINE CONTAINING THIAZINE DIOXIDE DERIVATIVE” (NIPPON HYPOX LABORATORIES INCORPORATED, priority 1989, dated 1991)
